Test results from ChEMBL document CHEMBL3046568, “Synthesis, antimicrobial and DNA cleavage studies of some 4-aryloxymethylcoumarins obtained by reaction of 4-bromomethylcoumarins with bidentate nucleophiles” (2012).
Converted amounts (≈) assume the structure as drawn. The source made the active and inactive calls. The calls are words filed in the database; no cut-off is given here.

Experiments:
Enterococcus faecalis = assay: Antibacterial activity against Enterococcus faecalis MTCC 3382 after 24 hr by disk diffusion method; assay type: functional; conditions: for MIC: Enterococcus faecalis, MTCC 3382, 24 h
Escherichia coli [1] = assay: Induction of Escherichia coli MTCC 1089 DNA cleavage at 50 ug after 2 hr by agarose gel electrophoresis
Staphylococcus aureus [2] = assay: Antibacterial activity against Staphylococcus aureus MTCC 3160 after 24 hr by disk diffusion method; assay type: functional; conditions: for MIC: Staphylococcus aureus, MTCC 3160, 24 h
Mucor fuscus = assay: Antifungal activity against Mucor fuscus after 3 to 4 days by serial dilution method; assay type: functional; conditions: for MIC: Mucor fuscus
Fusarium oxysporum = assay: Antifungal activity against Fusarium oxysporum after 3 to 4 days by serial dilution method; assay type: functional; conditions: for MIC: Fusarium oxysporum
Escherichia coli [3] = assay: Antibacterial activity against Escherichia coli MTCC 1089 after 24 hr by disk diffusion method; assay type: functional; conditions: for MIC: Escherichia coli, MTCC 1089, 24 h
Bacillus subtilis = assay: Antibacterial activity against Bacillus subtilis MTCC 297 after 24 hr by disk diffusion method; assay type: functional; conditions: for MIC: Bacillus subtilis, MTCC 297, 24 h
Aspergillus niger [4] = assay: Antifungal activity against Aspergillus niger after 3 to 4 days by serial dilution method; assay type: functional; conditions: for MIC: Aspergillus niger
Staphylococcus aureus [5] = assay: Induction of Staphylococcus aureus MTCC 3160 DNA cleavage at 50 ug after 2 hr by agarose gel electrophoresis
Klebsiella pneumoniae = assay: Antibacterial activity against Klebsiella pneumoniae MTCC 3384 after 24 hr by disk diffusion method; assay type: functional; conditions: for MIC: Klebsiella pneumoniae, MTCC 3384, 24 h
Pseudomonas aeruginosa = assay: Antibacterial activity against Pseudomonas aeruginosa MTCC 1034 after 24 hr by disk diffusion method; assay type: functional; conditions: for MIC: Pseudomonas aeruginosa, MTCC 1034, 24 h
Penicillium chrysogenum = assay: Antifungal activity against Penicillium chrysogenum after 3 to 4 days by serial dilution method; assay type: functional; conditions: for MIC: Penicillium chrysogenum
Aspergillus niger [6] = assay: Induction of Aspergillus niger DNA cleavage at 50 ug after 2 hr by agarose gel electrophoresis
Aspergillus fumigatus = assay: Antifungal activity against Aspergillus fumigatus after 3 to 4 days by serial dilution method; assay type: functional; conditions: for MIC: Aspergillus fumigatus
Candida albicans = assay: Antifungal activity against Candida albicans after 3 to 4 days by serial dilution method; assay type: functional; conditions: for MIC: Candida albicans

Structure (SMILES)	inhibition zone (IZ) (Enterococcus faecalis)	MIC (Enterococcus faecalis)	Activity (Escherichia coli [1])	inhibition zone (IZ) (Staphylococcus aureus [2])	MIC (Staphylococcus aureus [2])	inhibition zone (IZ) (Mucor fuscus)	MIC (Mucor fuscus)	MIC (Fusarium oxysporum)	MIC (Escherichia coli [3])	inhibition zone (IZ) (Bacillus subtilis)	MIC (Bacillus subtilis)	inhibition zone (IZ) (Aspergillus niger [4])	MIC (Aspergillus niger [4])	Activity (Staphylococcus aureus [5])	inhibition zone (IZ) (Klebsiella pneumoniae)	inhibition zone (IZ) (Pseudomonas aeruginosa)	MIC (Pseudomonas aeruginosa)	inhibition zone (IZ) (Penicillium chrysogenum)	MIC (Penicillium chrysogenum)	Activity (Aspergillus niger [6])	also measured
CCN(CC)c1cccc(OCc2cc(=O)oc3c2ccc2ccccc23)c1	14 mm	12.5 µg/mL (≈ 33.5 µM)	inactive	14 mm	12.5 µg/mL (≈ 33.5 µM)	13 mm	25 µg/mL (≈ 66.9 µM)	25 µg/mL (≈ 66.9 µM)	25 µg/mL (≈ 66.9 µM)	11 mm	25 µg/mL (≈ 66.9 µM)	17 mm	12.5 µg/mL (≈ 33.5 µM)	inactive	16 mm	19 mm	6.25 µg/mL (≈ 16.7 µM)	17 mm	12.5 µg/mL (≈ 33.5 µM)	inactive	inhibition zone (IZ) (Fusarium oxysporum): 13 mm; inhibition zone (IZ) (Escherichia coli [3]): 13 mm; MIC (Klebsiella pneumoniae): 12.5 µg/mL (≈ 33.5 µM); inhibition zone (IZ) (Aspergillus fumigatus): 15 mm; MIC (Aspergillus fumigatus): 12.5 µg/mL (≈ 33.5 µM); inhibition zone (IZ) (Candida albicans): 14 mm; MIC (Candida albicans): 12.5 µg/mL (≈ 33.5 µM)
Cc1ccc2oc(=O)cc(COc3cccc(OCc4cc(=O)oc5ccc(C)cc45)c3)c2c1	16 mm	12.5 µg/mL (≈ 27.5 µM)	inactive	14 mm	12.5 µg/mL (≈ 27.5 µM)	16 mm	12.5 µg/mL (≈ 27.5 µM)	> 100 µg/mL	> 100 µg/mL	14 mm	12.5 µg/mL (≈ 27.5 µM)	17 mm	12.5 µg/mL (≈ 27.5 µM)	inactive	12 mm	13 mm	25 µg/mL (≈ 55 µM)	16 mm	25 µg/mL (≈ 55 µM)	inactive	MIC (Klebsiella pneumoniae): 12.5 µg/mL (≈ 27.5 µM); inhibition zone (IZ) (Aspergillus fumigatus): 17 mm; MIC (Aspergillus fumigatus): 12.5 µg/mL (≈ 27.5 µM); inhibition zone (IZ) (Candida albicans): 9 mm; MIC (Candida albicans): 25 µg/mL (≈ 55 µM)
CCN(CC)c1cccc(OCc2cc(=O)oc3ccc(C)cc23)c1	17 mm	6.25 µg/mL (≈ 18.5 µM)	inactive	15 mm	12.5 µg/mL (≈ 37 µM)	16 mm	12.5 µg/mL (≈ 37 µM)	50 µg/mL (≈ 148 µM)	50 µg/mL (≈ 148 µM)	14 mm	12.5 µg/mL (≈ 37 µM)	18 mm	12.5 µg/mL (≈ 37 µM)	inactive	13 mm	15 mm	25 µg/mL (≈ 74.1 µM)	17 mm	12.5 µg/mL (≈ 37 µM)	inactive	inhibition zone (IZ) (Fusarium oxysporum): 9 mm; inhibition zone (IZ) (Escherichia coli [3]): 10 mm; inhibition zone (IZ) (Aspergillus fumigatus): 16 mm; MIC (Aspergillus fumigatus): 12.5 µg/mL (≈ 37 µM); inhibition zone (IZ) (Candida albicans): 10 mm; MIC (Candida albicans): 25 µg/mL (≈ 74.1 µM)
CC(=O)Nc1cccc(OCc2cc(=O)oc3ccc4ccccc4c23)c1	10 mm	25 µg/mL (≈ 69.6 µM)	inactive	13 mm	12.5 µg/mL (≈ 34.8 µM)	15 mm	25 µg/mL (≈ 69.6 µM)	25 µg/mL (≈ 69.6 µM)	25 µg/mL (≈ 69.6 µM)	11 mm	25 µg/mL (≈ 69.6 µM)	19 mm	6.25 µg/mL (≈ 17.4 µM)	inactive	15 mm	18 mm	12.5 µg/mL (≈ 34.8 µM)	18 mm	12.5 µg/mL (≈ 34.8 µM)	inactive	inhibition zone (IZ) (Fusarium oxysporum): 12 mm; inhibition zone (IZ) (Escherichia coli [3]): 13 mm; MIC (Klebsiella pneumoniae): 12.5 µg/mL (≈ 34.8 µM); inhibition zone (IZ) (Aspergillus fumigatus): 17 mm; MIC (Aspergillus fumigatus): 12.5 µg/mL (≈ 34.8 µM); inhibition zone (IZ) (Candida albicans): 15 mm; MIC (Candida albicans): 12.5 µg/mL (≈ 34.8 µM)
CC(=O)Nc1cccc(OCc2cc(=O)oc3ccc(Br)cc23)c1	18 mm	6.25 µg/mL (≈ 16.1 µM)	Active	17 mm	6.25 µg/mL (≈ 16.1 µM)	19 mm	6.25 µg/mL (≈ 16.1 µM)	25 µg/mL (≈ 64.4 µM)	12.5 µg/mL (≈ 32.2 µM)	17 mm	6.25 µg/mL (≈ 16.1 µM)	20 mm	6.25 µg/mL (≈ 16.1 µM)	Active	18 mm	22 mm	6.25 µg/mL (≈ 16.1 µM)	20 mm	6.25 µg/mL (≈ 16.1 µM)	Active	inhibition zone (IZ) (Fusarium oxysporum): 13 mm; inhibition zone (IZ) (Escherichia coli [3]): 14 mm; MIC (Klebsiella pneumoniae): 6.25 µg/mL (≈ 16.1 µM); inhibition zone (IZ) (Aspergillus fumigatus): 20 mm; MIC (Aspergillus fumigatus): 6.25 µg/mL (≈ 16.1 µM); inhibition zone (IZ) (Candida albicans): 16 mm; MIC (Candida albicans): 12.5 µg/mL (≈ 32.2 µM)
